According to patent US20240376437A1, “TARGETING VON WILLEBRAND FACTOR TO MODEL DISEASE IN HUMAN PLURIPOTENT STEM CELLS” (University of Washington, priority 2023, published 2024):

What was measured:
Type in all cases: cell-based, human
[1] = test system: VWF at the hPSC-EC surface; assay: VWF string formation assay under flow after PMA stimulation; conditions: 3 μM DAPT from day 6; 100 ng/mL PMA 20 min, flow 2.5 dyn/cm^2 5 min
Experimental: The hPSC-EC from day 5 of cell differentiation were seeded in a flow chamber (ibidi GmbH, μ-slide VI 0.4, 17×3.8×0.4 mm) precoated with 2.5 mg/mL collagen (Corning, Rate Tail Collagen Type I). Cells were fed by EGM endothelial cell growth medium+20 ng/ml recombinant human VEGF165+20 ng/mL recombinant human FGF-basic+1 μM Chir-99021 until day 12 of cell differentiation. The flow chamber was washed by 100 μl EBM endothelial cell growth basal medium (Lonza) twice. Cells were stimulated in EBM medium with 100 ng/mL PMA at stasis at 37° C. and 5% CO2 for 20 minutes and then followed by flow (2.5 dyn/cm^2 wall shear stress) using a syringe pump for 5 minutes. After flow stopped, the flow chamber was blocked by 6% BSA (Sigma Aldrich) in EBM medium for 10 minutes. […] Cells were washed by EBM medium for three times and imaged under Olympus wide field fluorescence microscope. […]
VWF forms strings on HUVEC surface upon stimulation by agonists such as phorbol 12-myristate 13-acetate (PMA) (FIG. 10A). […] The effect of enhancing VWF level on VWF string formation was then evaluated. hPSC-EC were transferred into a microfluidic channel on day 5 of differentiation and treated with 3 μM DAPT from day 6 onwards. […] VWF attached to the EC surface was detected live by FITC-labeled anti-VWF antibody, which was introduced under flow. […]

[2] = test system: hPSC-EC; assay: hPSC-EC maturation: cell size and CD144 junction morphology; conditions: 0 or 3 μM DAPT
Experimental: (§1) Cells were fixed with 4% paraformaldehyde in 1×PBS for 15 minutes and subsequently washed three times with 1×PBS. For immunofluorescence, fixed samples were blocked with 5% donkey serum plus 0.1% Triton X-100 in 1×PBS, incubated overnight in 3% bovine serum albumin (BSA) (Sigma Aldrich)+1×PBS with primary antibodies, washed, incubated with secondary antibodies, washed and imaged. Primary antibodies included antibodies for VWF (Agilent Technologies; A008202), β-Actin (Cell Signaling Technology; 4970); DAPI (Cayman Chemical Company; 14285), Angiopoietin 2 (R&D Systems; AF623), CD31 (BD Biosciences; 555444), CD144 (BD Biosciences; 555661), and Notch1 (Cell Signaling Technology; 3608S). Fluorescence labeled antibodies included anti-rabbit IgG secondary antibody Alexa Fluor 488 (Thermo Fisher Scientific; A32731), anti-mouse IgG secondary antibody Alexa Fluor 555 (Thermo Fisher Scientific; A21422), and FITC anti-VWF antibody (Abcam; ab8822). To compare different experimental conditions, images were collected at identical microscopy setup using wide field or confocal fluorescence microscope. […]
hPSC-EC were treated with blood plasma or compounds to test their effects on VWF expression level in cells. […] Due to the high fluorescence background in 40% and 80% plasma treated cells, we only used less than 40% plasma to treat cells for immunofluorescence imaging.

[3] = test system: VWF expression level in hPSC-EC; assay: VWF and CD144 protein in hPSC-EC by immunoblot
Experimental: Whole cells lysate was extracted using 1× RIPA lysis and extraction buffer (Thermo Fisher Scientific) supplemented with 1× protease inhibitor cocktail (Sigma Aldrich) and 1 μL Benzonase nuclease (Sigma Aldrich) per sample. Each sample was supplied with 100 mM DTT (Sigma Aldrich) and 1× Laemmli sample buffer (Bio-Rad) and heated at 95° C. for 5 minutes. The primary antibodies above were added to samples and followed by anti-rabbit or anti-mouse IgG secondary antibody conjugated with HRP (Thermo Fisher Scientific; 31460 or 31430). Immunoblots were imaged in the presence of Pierce ECL Western Blotting substrate (Thermo Fisher Scientific) and quantified using Fiji software.
Ten compounds were added separately to hPSC culture medium on day 6 of the cell differentiation and maintained in the media thereafter. The untreated cell culture medium was EGM with additional 20 ng/ml VEGF, 20 ng/ml FGF, and 1 μM Chir99021. Based on untreated cell culture medium, we tested the following additional concentrations of compounds: VEGF (30, 70, 120 ng/ml, Peprotech 100-20), FGF (30, 70, 120 ng/ml, PeproTech 100-18B), human transforming growth factor β1 (TGFβ1, 1, 3, 10 ng/ml, R&D Systems 240-B), lipopolysaccharide (LPS, 1, 3, 10 ng/ml, Santa Cruz sc-3535), human interferon gamma (IFN, 1, 3, 10 ng/ml, Peprotech 300-02), human noggin (1, 3, 10 ng/ml, Peprotech, 120-10C), Chir99021 (1, 3, 10 µM, Reprocell 04-0004-10), Smoothened agonist (SAG, 1, 3, 10 μM, Cayman Chemical 11914), BMP4 (1, 3, 10, 50 ng/ml, R&D Systems 314-BP), or DAPT (1, 3, 10 µM, Tocris 2634). Concentrations of these compounds that were likely to be safe and efficacious were used based on the literature and previous experience. To treat HUVEC with DAPT (Tocris 2634), 0/10/30 μM DAPT was added to the cell culture medium EGM on day 2 after cell passaging and maintained in the media thereafter. The cell culture medium with corresponding compound was changed every two days until cell fixation or cell lysis experiment on day 10-14 for hSPC-EC or day 7-9 for HUVEC.

[4] = test system: VWF expression level in hPSC-EC; assay: VWF expression level in hPSC-EC by immunofluorescence
Experimental: as §1
hPSC-EC were treated with blood plasma or compounds to test their effects on VWF expression level in cells. […] Due to the high fluorescence background in 40% and 80% plasma treated cells, we only used less than 40% plasma to treat cells for immunofluorescence imaging. […]

[5] = test system: VWF level in HUVEC; assay: VWF level in HUVEC treated with DAPT (immunofluorescence and immunoblot)
Experimental: Cells were fixed with 4% paraformaldehyde in 1×PBS for 15 minutes and subsequently washed three times with 1×PBS. For immunofluorescence, fixed samples were blocked with 5% donkey serum plus 0.1% Triton X-100 in 1×PBS, incubated overnight in 3% bovine serum albumin (BSA) (Sigma Aldrich)+1×PBS with primary antibodies, washed, incubated with secondary antibodies, washed and imaged. Primary antibodies included antibodies for VWF (Agilent Technologies; A008202), β-Actin (Cell Signaling Technology; 4970); DAPI (Cayman Chemical Company; 14285), Angiopoietin 2 (R&D Systems; AF623), CD31 (BD Biosciences; 555444), CD144 (BD Biosciences; 555661), and Notch1 (Cell Signaling Technology; 3608S). Fluorescence labeled antibodies included anti-rabbit IgG secondary antibody Alexa Fluor 488 (Thermo Fisher Scientific; A32731), anti-mouse IgG secondary antibody Alexa Fluor 555 (Thermo Fisher Scientific; A21422), and FITC anti-VWF antibody (Abcam; ab8822). To compare different experimental conditions, images were collected at identical microscopy setup using wide field or confocal fluorescence microscope. Image analysis was performed using Fiji software.
Whole cells lysate was extracted using 1× RIPA lysis and extraction buffer (Thermo Fisher Scientific) supplemented with 1× protease inhibitor cocktail (Sigma Aldrich) and 1 μL Benzonase nuclease (Sigma Aldrich) per sample. […]

## C[C@H](NC(=O)Cc1cc(F)cc(F)c1)C(=O)N[C@H](C(=O)OC(C)(C)C)c1ccccc1 [DAPT]
[1]
  VWF attached to the EC surface of control hPSC-EC: numerous foci of VWF at the cell surface
  VWF string formation: formed strings attached to the EC surface
[2]
  Changes in hPSC-EC size or junctional morphology: did not induce the changes
[3]; DAPT-treated hPSC-EC
  CD144 marker for EC: does not affect CD144
  VWF protein by immunoblot: confirmed the increase in VWF protein
[3]; hPSC-EC, DAPT 1, 3, 10 μM
  DAPT final concentration at which VWF protein peaks (immunoblot): ~3 µM
[4]; added day 6 of differentiation, DAPT 1 μM
  Levels of VWF by immunofluorescence in screen of ten compounds: substantially increased levels of VWF
[4]; final concentration of 1 μM DAPT
  Increase of VWF fluorescence intensity vs untreated control, repeated trials: approximately two-fold
[5]; 0/10/30 μM DAPT
  VWF level in HUVEC by immunofluorescence and immunoblot: enhanced VWF level with increased DAPT concentrations
[5]; HUVEC, 10 μM DAPT
  VWF increase compared to untreated controls: ~1.7 times
